Data taken from US20090258849A1, “NITROOXY DERIVATIVES OF GLUCOCORTICOIDS” (Nicox S.A., priority 2005, published 2009).

Legend:
[1] = test system: TPA-induced ear oedema; experiment: Inhibition of TPA-induced ear oedema after topical administration; format: in vivo, male Swiss mice; details: TPA 2 μg/ear, topical 20 μL of 0.39 nM solution in ethanol 15 min before TPA, ear weight change; for % inhibition 3 hours post-treatment: 3 h post TPA; for % inhibition 5 hours post-treatment: 5 h post TPA
Source text: The tested compounds are: • (11β,16α)-9-fluoro-11-hydroxy-16,17-[1-methylethylidene bis(oxy)]-21-[1-oxo-[4-(nitrooxymethyl)benzoxy]]pregna-1,4-diene-3,20-dione, prepared as described in example 1; • Triamcinolone acetonide that is the reference compound for the compound of example 1; • (11β)-17-[(ethoxycarbonyl)oxy]-11-hydroxy-21-[1-oxo-[4-(nitrooxy methyl)benzoxy]]pregna-1,4-diene-3,20-dione, prepared as described in example 2; • Prednicarbate that is the reference compound for the compound of example 2; The tests were performed according to the methods described by Carlson et al., Agents Actions 17:197-204, 1985, and Lucas et al., J Pharmacol Exp Ther 304:1172-1180, 2003.
Groups of 5-9 male Swiss mice of 27±5 g were used. Inflammation dermatitis was induced by applying 2 μg/ear of TPA (Tetradecanoyl Phorbol Acetate) dissolved with ethanol absolute on the surface of either the dorsal aspect of both ears (20 μL/ear).
15 min before the application of TPA, mice received topically 20 μL of a solution of test compounds (0.39 nM in ethanol) per site applied directly on the skin of the left ear and the vehicle (ethanol 100%) on right ear. Vehicle-Vehicle treated mice were included as negative control group. Compounds were tested at equimolecular doses.
Animals were sacrificed at 3 h or 5 h post TPA dose. Equal sections of both ears were punched out immediately after and weighed. The percentage of change of the weight of left ear versus the weight of right ear was calculated for each animal, and the percentage of inhibition of change in weight of treated animals versus the change in weight of non-treated animals (negative control) was measured.

[2] = test system: TNF-α; experiment: TPA-induced increase of TNF-α in mouse ear; format: in vivo, Swiss male mice; details: for TNFalpha: ear homogenate, Mean ± S.E.M. (n = 10)
Protocol: (§1) A ear section of the right ear of mice were homogenized in 500 μl saline, and after centrifugation at 1,200 g for 15 min at 4° C., the PGE2 and TNF-α levels were determined by radioimmunoassay (Hoult et al., Methods Enzymol 1994) or by time-resolved fluoroimmunoassay ([…] et al., Int J. Immunopharmacol. 1995), respectively. Test compounds dissolved in the vehicle were applied topically 15 min before TPA administration.

[3] = test system: PGE2; experiment: TPA-induced increase of PGE2 in mouse ear; format: in vivo, Swiss male mice; details: for PGE2: ear homogenate, Mean ± S.E.M. (n = 10)
Protocol: as §1

[4] = test system: irritant contact dermatitis induced by benzalkonium chloride; experiment: Contact dermatitis induced by benzalkonium in mice (ear edema); format: in vivo; parameters: Ear edema (left ears) value: unit not given here
Protocol: Irritant contact dermatitis was induced by applying 5% benzalkonium chloride (100 μl per site, dissolved in olive oil:acetone, 1:5 v/v) on the dorsal aspect of the two ears. Ear diameter was measured as a parameter for edema formation, before and hourly for 6 hours after benzalkonium chloride application, using an electronic caliper. The last measurement was performed at 8-hours after dermatitis induction.
(§2) The tested compounds were applied topically dissolved in ethanol:sterile water (1:1) and applied at a final volume of 100 μl, five minutes after irritant contact dermatitis will be induced.
Ear edema (left ears) value for times 1 to 4 hours after irritant stimuli with benzalkonium chloride are represented in the table 3.

[5] = test system: dermal microvasculature, leukocyte/endothelial cells interaction; experiment: Intravital microscopy of skin flap in mice (vessel diameter, rolling leukocytes); format: in vivo, C57B16 male mice; parameters: unit not given here; details: 3 nmol topical
Protocol: C57B16 male mice will be anaesthetized by intraperitoneal injection of a mixture of 10 mg/kg xylazine (MTC Pharmaceuticals, Cambridge, Ontario, Canada) and 200 mg/kg ketamine hydrochloride (Rogar/STB, London, Ontario, Canada). […] Therefore, after anaesthesia, mice will receive an intravenous injection of a fluorescent dye, rhodamine 6G (Sigma, St. Louis, Mo., USA, 0.3 mg/kg). […] Then, a midline abdominal incision will be performed, from the diaphragm, extending to the pelvic region. The skin will carefully be separated from the underlying tissue, but remained attached laterally, so the blood supply to the skin flap remained intact. The skin flap will be extended over a viewing pedestal to expose the dermal microvasculature and secured along the edges using 4.0 sutures. The exposed dermal tissues will be superfused with a bicarbonate-buffered saline pH 7.4, to avoid tissue dehydration. The microcirculation will be observed using an inverted microscope (Nikon) with a ×20 objective lens, and rhodamine 6G allows visualization and quantification of the number of rolling and adherent leukocytes, by epi-illumination at 510-560 nm, using a 590-nm emission filter. Single unbranched venules (20-40 μm in diameter) will be selected for the study. Images of the selected venule will be recorded for […], after a 15-min equilibration period and the end of this 5-min interval was considered as time 0. Leukocyte adherence will be determined upon video playback, on 100 μm vessel length (table 4). A leukocyte will be considered adherent to the endothelium if it remained stationary for 30 s or more. Leukocyte flux will be defined as the number of leukocytes per minute moving at a velocity less than that of erythrocytes, which passed a reference point in the venule. The changes in flux of rolling leukocytes will be evaluated as differences between the number of rolling leukocytes at each interval and the basal number of rolling leukocytes (table 5).
as §2

[6] = 0.48 μg/ear topical 15 min before TPA
[7] = 3 nmol topical, 1 hour after benzalkonium application
[8] = 3 nmol topical, 2 hours after benzalkonium application
[9] = 3 nmol topical, 3 hours after benzalkonium application
[10] = 3 nmol topical, 4 hours after benzalkonium application
[11] = 1 μg/ear topical 15 min before TPA

Compound | % inhibition 3 hours post-treatment [1] [%] | % inhibition 5 hours post-treatment [1] [%] | Ear edema (left ears) value [4, 7] | Ear edema (left ears) value [4, 8] | Ear edema (left ears) value [4, 9] | Ear edema (left ears) value [4, 10] | Area under the curve (change in flux of rolling leucocytes) [5] | Area under the curve (change in vessel diameter) [5] | other results
CC1(C)O[C@@H]2C[C@H]3C4CCC5=CC(=O)C=C[C@]5(C)[C@@]4(F)[C@@H](O)C[C@]3(C)[C@]2(C(=O)COC(=O)c2ccc(CO[N+](=O)[O-])cc2)O1 (stereo partly drawn) [Example 1, (11β,16α)-9-fluoro-11-hydroxy-16,17-[1-methylethylidenebis(oxy)]-21-[1-oxo-[4-(nitrooxymethyl)benzoxy]]pregna-1,4-diene-3,20-dione] | 22.70 | 21.01 | 0.018 ± 0.004 | 0.042 ± 0.007 | 0.042 ± 0.010 | 0.070 ± 0.007 | 247 ± 35 | 114 ± 32 | TNFalpha [2, 6]: 149.5 ± 17.8 pg/mL; Inhibition of TNF-α release, result in words ([2]; versus prior art compound): inhibits the release of TNF-α in a higher potency than the prior art compound; PGE2 [3, 6]: 53.2 ± 4.5 ng/mL; Reduction of PGE2 level / inflammation, result in words ([3]; low dose versus higher dose of the parent compound): more effective in reducing the inflammation than the correspondent parent compound; Ear edema (left ears) value ([4]; 0.3 nmol topical, 1 hour after benzalkonium application): 0.026 ± 0.005; Ear edema (left ears) value ([4]; 0.3 nmol topical, 2 hours after benzalkonium application): 0.035 ± 0.008; Ear edema (left ears) value ([4]; 0.3 nmol topical, 3 hours after benzalkonium application): 0.053 ± 0.009; Ear edema (left ears) value ([4]; 0.3 nmol topical, 4 hours after benzalkonium application): 0.047 ± 0.007; Ear edema (left ears) value ([4]; 1 nmol topical, 1 hour after benzalkonium application): 0.020 ± 0.006; Ear edema (left ears) value ([4]; 1 nmol topical, 2 hours after benzalkonium application): 0.035 ± 0.008; Ear edema (left ears) value ([4]; 1 nmol topical, 3 hours after benzalkonium application): 0.057 ± 0.011; Ear edema (left ears) value ([4]; 1 nmol topical, 4 hours after benzalkonium application): 0.065 ± 0.010; Inhibition of ear edema, result in words ([4]; compared with triamcinolone acetonide, mainly at earlier times): dose-dependent effect in inhibiting ear edema with a better profile than triamcinolone acetonide
CCOC(=O)O[C@]1(C(=O)COC(=O)c2ccc(CO[N+](=O)[O-])cc2)CC[C@H]2[C@@H]3CCC4=CC(=O)C=C[C@]4(C)[C@H]3[C@@H](O)C[C@@]21C [Example 2, (11β)-17-[(ethoxycarbonyl)oxy]-11-hydroxy-21-[1-oxo-[4-(nitrooxymethyl)benzoxy]]pregna-1,4-diene-3,20-dione] | 33.26 |  | 0.025 ± 0.008 | 0.028 ± 0.009 | 0.040 ± 0.009 | 0.061 ± 0.007 | 300 ± 75 | 175 ± 70 | 
CCOC(=O)O[C@]1(C(=O)COC(=O)CC)CC[C@H]2[C@@H]3CCC4=CC(=O)C=C[C@]4(C)[C@H]3[C@@H](O)C[C@@]21C [Prednicarbate, reference compound] | 19.58 |  |  |  |  |  | 412 ± 112 | 282 ± 71 | 
CC1(C)O[C@@H]2C[C@H]3[C@@H]4CCC5=CC(=O)C=C[C@]5(C)[C@@]4(F)[C@@H](O)C[C@]3(C)[C@]2(C(=O)CO)O1 [Triamcinolone acetonide, reference compound] | 14.90 | 12.19 | 0.037 ± 0.005 | 0.063 ± 0.010 | 0.041 ± 0.018 | 0.068 ± 0.022 | 376 ± 129 | 278 ± 78 | TNFalpha [2, 11]: 158.0 ± 24.6 pg/mL; PGE2 [3, 11]: 43.0 ± 3.8 ng/mL
